Reference: patent publication US12168673B2 (Mitopower, Inc., priority 2022, dated 2024)

What was measured:
[1] = Stability in solutions (pH range, simulated gastric fluid, simulated intestinal fluid); assay type: physicochemical
Experimental: 1 mg/ml solutions of compound 100 were prepared in each buffer, diluted to 0.1 mg/ml in methanol at each time point and analyzed as follows: Gemini C-18, 250×4.6 mm, 5 im, Mobile Phase: Methanol Isocratic Flow Rate: 0.4 mL/min.

Jurkat Cells = test: Cellular NAD+ levels in Jurkat cells (LCMS/MS); assay type: cell-based; details: 30 μM, four hours of incubation
Huh-7 Cells = test: Cellular NAD+ levels in Huh-7 cells (LCMS/MS); assay type: cell-based; details: 125 μm, four hours of incubation

O=C(OC[C@H]1OC(O)[C@H](O)[C@@H]1O)c1ccccn1 (stereo partly drawn) [Compound 102, (3,4,5-trihydroxytetrahydrofuran-2-yl) methyl picolinate]
% remaining ([1]; SGF (simulated gastric fluid), 0 h): 95.54%
% remaining ([1]; SGF (simulated gastric fluid), 1 week): 91.04%
% remaining ([1]; SGF (simulated gastric fluid), 1 h): 94.73%
% remaining ([1]; SGF (simulated gastric fluid), 2 h): 93.68%
% remaining ([1]; SGF (simulated gastric fluid), 4 h): 93.65%
% remaining ([1]; SGF (simulated gastric fluid), 8 h): 93.69%
% remaining ([1]; SGF (simulated gastric fluid), 24 h): 93.61%
% remaining ([1]; SGF (simulated gastric fluid), 48 h): 93.58%
% remaining ([1]; SIF (simulated intestinal fluid), 0 h): 96.45%
% remaining ([1]; SIF (simulated intestinal fluid), 1 week): 84.49%
% remaining ([1]; SIF (simulated intestinal fluid), 1 h): 96.01%
% remaining ([1]; SIF (simulated intestinal fluid), 2 h): 96.02%
% remaining ([1]; SIF (simulated intestinal fluid), 4 h): 95.96%
% remaining ([1]; SIF (simulated intestinal fluid), 8 h): 95.77%
% remaining ([1]; SIF (simulated intestinal fluid), 24 h): 94.28%
% remaining ([1]; SIF (simulated intestinal fluid), 48 h): 93.75%
% remaining ([1]; pH 1, 0 h): 95.73%
% remaining ([1]; pH 1, 1 week): 95.56%
% remaining ([1]; pH 1, 1 h): 95.69%
% remaining ([1]; pH 1, 2 h): 95.64%
% remaining ([1]; pH 1, 4 h): 95.61%
% remaining ([1]; pH 1, 8 h): 95.64%
% remaining ([1]; pH 1, 24 h): 95.61%
% remaining ([1]; pH 1, 48 h): 95.64%
% remaining ([1]; pH 2, 0 h): 95.67%
% remaining ([1]; pH 2, 1 week): 95.39%
% remaining ([1]; pH 2, 1 h): 95.65%
% remaining ([1]; pH 2, 2 h): 95.66%
% remaining ([1]; pH 2, 4 h): 95.64%
% remaining ([1]; pH 2, 8 h): 95.67%
% remaining ([1]; pH 2, 24 h): 95.56%
% remaining ([1]; pH 2, 48 h): 95.54%
% remaining ([1]; pH 4, 0 h): 95.37%
% remaining ([1]; pH 4, 1 week): 94.76%
% remaining ([1]; pH 4, 1 h): 95.32%
% remaining ([1]; pH 4, 2 h): 95.27%
% remaining ([1]; pH 4, 4 h): 95.25%
% remaining ([1]; pH 4, 8 h): 95.26%
% remaining ([1]; pH 4, 24 h): 95.26%
% remaining ([1]; pH 4, 48 h): 95.05%
% remaining ([1]; pH 6, 0 h): 96.31%
% remaining ([1]; pH 6, 1 week): 94.47%
% remaining ([1]; pH 6, 1 h): 96.32%
% remaining ([1]; pH 6, 2 h): 96.26%
% remaining ([1]; pH 6, 4 h): 96.27%
% remaining ([1]; pH 6, 8 h): 96.25%
% remaining ([1]; pH 6, 24 h): 95.73%
% remaining ([1]; pH 6, 48 h): 95.66%
% remaining ([1]; pH 7.4, 0 h): 95.8%
% remaining ([1]; pH 7.4, 1 week): 61.5%
% remaining ([1]; pH 7.4, 1 h): 95.7%
% remaining ([1]; pH 7.4, 2 h): 94.95%
% remaining ([1]; pH 7.4, 4 h): 94.34%
% remaining ([1]; pH 7.4, 8 h): 93.43%
% remaining ([1]; pH 7.4, 24 h): 90.13%
% remaining ([1]; pH 7.4, 48 h): 83.6%
% remaining ([1]; pH 9, 0 h): 94.05%
% remaining ([1]; pH 9, 1 week): 0%
% remaining ([1]; pH 9, 1 h): 74.72%
% remaining ([1]; pH 9, 2 h): 56.28%
% remaining ([1]; pH 9, 4 h): 49.14%
% remaining ([1]; pH 9, 8 h): 23.34%
% remaining ([1]; pH 9, 24 h): 14.94%
% remaining ([1]; pH 9, 48 h): 0.63%
NAD+ level increase compared to untreated cells (Jurkat Cells): showed statistical significance in terms of NAD^+ level increases
NAD+ level increase compared to untreated cells (Huh-7 Cells): showed an increase
